# Experimental data from ChEMBL document CHEMBL2396574, “Design, synthesis and evaluation of retinoids with novel bulky hydrophobic partial structures” (Bioorg Med Chem, 2013).
# Active and inactive are the calls of the source. The calls are words filed in the database; no cut-off is given here.
# Target: T1, Retinoic acid receptor RXR-beta (Homo sapiens) (UniProt P28702)
# T1 sequence (whole entry): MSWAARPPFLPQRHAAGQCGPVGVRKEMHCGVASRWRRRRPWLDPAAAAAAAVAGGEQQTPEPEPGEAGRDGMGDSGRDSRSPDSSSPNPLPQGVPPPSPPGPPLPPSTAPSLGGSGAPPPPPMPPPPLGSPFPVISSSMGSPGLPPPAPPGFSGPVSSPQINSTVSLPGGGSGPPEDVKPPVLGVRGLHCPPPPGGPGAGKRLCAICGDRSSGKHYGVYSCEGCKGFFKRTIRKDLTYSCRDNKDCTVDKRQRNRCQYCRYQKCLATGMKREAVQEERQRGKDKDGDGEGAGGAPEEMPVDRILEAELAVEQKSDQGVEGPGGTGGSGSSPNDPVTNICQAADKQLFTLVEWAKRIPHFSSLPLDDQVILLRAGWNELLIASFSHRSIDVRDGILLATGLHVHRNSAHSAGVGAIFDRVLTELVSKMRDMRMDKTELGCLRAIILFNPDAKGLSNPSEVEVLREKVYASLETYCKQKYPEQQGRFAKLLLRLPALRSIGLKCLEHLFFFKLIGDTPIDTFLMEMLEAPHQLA
# Assay: Transactivation of full-length RXRbeta (unknown origin) expressed in African green monkey COS1 cells at 1000 nM by luciferase reporter gene assay
# Assay type: cell-based
# Conditions: COS-1
row,Compound,Activity
1,O=C(Nc1ccc(C(=O)O)c(Cl)c1)c1cc2c3c(c1)CCCC3CCC2,inactive
2,COc1cc(NC(=O)c2cc3c4c(c2)CCCC4(C)CCC3)ccc1C(=O)O,inactive
3,COc1cc(NC(=O)c2cc3c4c(c2)CCCC4CCC3)ccc1C(=O)O,inactive
4,CC1(C)CCC(C)(C)c2cc(NC(=O)c3ccc(C(=O)O)cc3)ccc21 [TAMIBAROTENE],inactive
5,CC12CCCc3cc(C(=O)Nc4ccc(C(=O)O)c(Cl)c4)cc(c31)CCC2,inactive
6,CC12CCCc3cc(C(=O)Nc4ccc(C(=O)O)cn4)cc(c31)CCC2,inactive
7,O=C(O)c1ccc(NC(=O)c2cc3c4c(c2)CCCCC4CCCC3)nc1,inactive
8,O=C(O)c1ccc(C(=O)Nc2cc3c4c(c2)CCCCC4CCCC3)nc1,inactive
9,O=C(O)c1ccc(C(=O)Nc2cc3cc(c2)CCCCCCCCCC3)cc1,inactive
10,CC12CCCc3cc(NC(=O)c4ccc(C(=O)O)cc4)cc(c31)CCC2,inactive

# Now from value to molecule:
row,Activity,Compound
1,inactive,O=C(O)c1ccc(C(=O)Nc2cc3c4c(c2)CCCC4CCC3)nc1
2,inactive,O=C(O)c1ccc(NC(=O)c2cc3c4c(c2)CCCC4CCC3)cc1
3,inactive,O=C(Nc1ccc(C(=O)O)nc1)c1cc2c3c(c1)CCCC3CCC2
4,inactive,O=C(O)c1ccc(C(=O)Nc2cc3c4c(c2)CCCC4CCC3)s1
5,inactive,O=C(Nc1ccc(C(=O)O)s1)c1cc2c3c(c1)CCCC3CCC2

# System: HL-60
# Assay: Induction of human HL60 cell differentiation into myeloid cells at 10 nM after 4 days by NBT reduction assay relative to control
# Assay type: functional
# Conditions: not given
row,Compound,Activity [%]
1,O=C(Nc1ccc(C(=O)O)c(Cl)c1)c1cc2c3c(c1)CCCC3CCC2,16
2,O=C(O)c1ccc(C(=O)Nc2cc3c4c(c2)CCCC4CCC3)nc1,2
3,COc1cc(NC(=O)c2cc3c4c(c2)CCCC4(C)CCC3)ccc1C(=O)O,5
4,COc1cc(NC(=O)c2cc3c4c(c2)CCCC4CCC3)ccc1C(=O)O,7
5,CC1(C)CCC(C)(C)c2cc(NC(=O)c3ccc(C(=O)O)cc3)ccc21 [TAMIBAROTENE],60
6,CC12CCCc3cc(C(=O)Nc4ccc(C(=O)O)c(Cl)c4)cc(c31)CCC2,19
7,CC12CCCc3cc(C(=O)Nc4ccc(C(=O)O)cn4)cc(c31)CCC2,41
8,O=C(O)c1ccc(NC(=O)c2cc3c4c(c2)CCCC4CCC3)cc1,27
9,O=C(O)c1ccc(C(=O)Nc2cc3cc(c2)CCCCCCCCCC3)cc1,16
10,CC12CCCc3cc(NC(=O)c4ccc(C(=O)O)cc4)cc(c31)CCC2,12

# Target: T2, Retinoic acid receptor gamma (Homo sapiens) (UniProt P13631)
# T2 sequence (whole entry): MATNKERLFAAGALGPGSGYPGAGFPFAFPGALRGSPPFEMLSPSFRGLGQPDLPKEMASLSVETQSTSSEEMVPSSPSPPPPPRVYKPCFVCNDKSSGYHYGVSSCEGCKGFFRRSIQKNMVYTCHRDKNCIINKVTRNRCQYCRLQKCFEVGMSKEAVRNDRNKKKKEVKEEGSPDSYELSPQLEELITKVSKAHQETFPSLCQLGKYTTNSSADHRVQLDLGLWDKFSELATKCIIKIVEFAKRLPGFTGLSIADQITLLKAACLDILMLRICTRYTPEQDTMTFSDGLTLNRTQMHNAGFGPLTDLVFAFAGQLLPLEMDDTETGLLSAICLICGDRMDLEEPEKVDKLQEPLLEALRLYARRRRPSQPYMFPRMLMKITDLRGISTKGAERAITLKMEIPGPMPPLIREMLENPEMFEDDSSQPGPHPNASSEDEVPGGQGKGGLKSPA
# Assay: Transactivation of Gal4-fused RARgamma (unknown origin) expressed in African green monkey COS1 cells at 100 nM by luciferase reporter gene assay relative to DMSO-treated control
# Assay type: cell-based
# Conditions: COS-1
row,Compound,fold change (FC)
1,O=C(Nc1ccc(C(=O)O)c(Cl)c1)c1cc2c3c(c1)CCCC3CCC2,1
2,COc1cc(NC(=O)c2cc3c4c(c2)CCCC4(C)CCC3)ccc1C(=O)O,1
3,COc1cc(NC(=O)c2cc3c4c(c2)CCCC4CCC3)ccc1C(=O)O,1
4,CC12CCCc3cc(C(=O)Nc4ccc(C(=O)O)c(Cl)c4)cc(c31)CCC2,1
5,CC12CCCc3cc(C(=O)Nc4ccc(C(=O)O)cn4)cc(c31)CCC2,25
6,O=C(O)c1ccc(NC(=O)c2cc3c4c(c2)CCCCC4CCCC3)nc1,56
7,O=C(O)c1ccc(C(=O)Nc2cc3c4c(c2)CCCCC4CCCC3)nc1,2
8,O=C(O)c1ccc(C(=O)Nc2cc3cc(c2)CCCCCCCCCC3)cc1,1
9,CC12CCCc3cc(NC(=O)c4ccc(C(=O)O)cc4)cc(c31)CCC2,1

# Second part, the molecule after the results:
row,fold change (FC),Compound
1,7,O=C(O)c1ccc(C(=O)Nc2cc3c4c(c2)CCCC4CCC3)nc1
2,3,O=C(O)c1ccc(NC(=O)c2cc3c4c(c2)CCCC4CCC3)cc1
3,1,O=C(Nc1ccc(C(=O)O)nc1)c1cc2c3c(c1)CCCC3CCC2
4,1,O=C(O)c1ccc(C(=O)Nc2cc3c4c(c2)CCCC4CCC3)s1
5,1,O=C(Nc1ccc(C(=O)O)s1)c1cc2c3c(c1)CCCC3CCC2

# Target: T3, Retinoic acid receptor RXR-gamma (Homo sapiens) (UniProt P48443)
# T3 sequence (whole entry): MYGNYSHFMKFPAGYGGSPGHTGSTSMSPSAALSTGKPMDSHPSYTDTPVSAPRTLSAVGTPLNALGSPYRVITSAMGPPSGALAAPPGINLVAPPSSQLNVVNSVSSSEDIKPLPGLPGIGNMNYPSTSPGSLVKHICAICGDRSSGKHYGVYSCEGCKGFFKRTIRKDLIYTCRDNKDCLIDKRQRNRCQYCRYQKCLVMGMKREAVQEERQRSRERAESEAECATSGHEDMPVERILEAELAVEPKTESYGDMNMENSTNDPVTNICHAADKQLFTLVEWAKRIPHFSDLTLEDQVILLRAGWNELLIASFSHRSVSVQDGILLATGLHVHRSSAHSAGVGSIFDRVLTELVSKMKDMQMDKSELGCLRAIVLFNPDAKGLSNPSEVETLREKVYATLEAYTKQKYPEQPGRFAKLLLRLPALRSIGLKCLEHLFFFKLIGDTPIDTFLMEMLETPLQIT
# Assay: Transactivation of full-length RXRgamma (unknown origin) expressed in African green monkey COS1 cells at 1000 nM by luciferase reporter gene assay
# Assay type: cell-based
# Conditions: COS-1
row,Compound,Activity
1,O=C(Nc1ccc(C(=O)O)c(Cl)c1)c1cc2c3c(c1)CCCC3CCC2,inactive
2,COc1cc(NC(=O)c2cc3c4c(c2)CCCC4(C)CCC3)ccc1C(=O)O,inactive
3,COc1cc(NC(=O)c2cc3c4c(c2)CCCC4CCC3)ccc1C(=O)O,inactive
4,CC1(C)CCC(C)(C)c2cc(NC(=O)c3ccc(C(=O)O)cc3)ccc21 [TAMIBAROTENE],inactive
5,CC12CCCc3cc(C(=O)Nc4ccc(C(=O)O)c(Cl)c4)cc(c31)CCC2,inactive
6,CC12CCCc3cc(C(=O)Nc4ccc(C(=O)O)cn4)cc(c31)CCC2,inactive
7,O=C(O)c1ccc(NC(=O)c2cc3c4c(c2)CCCCC4CCCC3)nc1,inactive
8,O=C(O)c1ccc(C(=O)Nc2cc3c4c(c2)CCCCC4CCCC3)nc1,inactive
9,O=C(O)c1ccc(C(=O)Nc2cc3cc(c2)CCCCCCCCCC3)cc1,inactive
10,CC12CCCc3cc(NC(=O)c4ccc(C(=O)O)cc4)cc(c31)CCC2,inactive

# Next, values leading:
row,Activity,Compound
1,inactive,O=C(O)c1ccc(C(=O)Nc2cc3c4c(c2)CCCC4CCC3)nc1
2,inactive,O=C(O)c1ccc(NC(=O)c2cc3c4c(c2)CCCC4CCC3)cc1
3,inactive,O=C(Nc1ccc(C(=O)O)nc1)c1cc2c3c(c1)CCCC3CCC2
4,inactive,O=C(O)c1ccc(C(=O)Nc2cc3c4c(c2)CCCC4CCC3)s1
5,inactive,O=C(Nc1ccc(C(=O)O)s1)c1cc2c3c(c1)CCCC3CCC2

# Target: T4, Retinoic acid receptor beta (Homo sapiens) (UniProt P10826)
# T4 sequence (whole entry): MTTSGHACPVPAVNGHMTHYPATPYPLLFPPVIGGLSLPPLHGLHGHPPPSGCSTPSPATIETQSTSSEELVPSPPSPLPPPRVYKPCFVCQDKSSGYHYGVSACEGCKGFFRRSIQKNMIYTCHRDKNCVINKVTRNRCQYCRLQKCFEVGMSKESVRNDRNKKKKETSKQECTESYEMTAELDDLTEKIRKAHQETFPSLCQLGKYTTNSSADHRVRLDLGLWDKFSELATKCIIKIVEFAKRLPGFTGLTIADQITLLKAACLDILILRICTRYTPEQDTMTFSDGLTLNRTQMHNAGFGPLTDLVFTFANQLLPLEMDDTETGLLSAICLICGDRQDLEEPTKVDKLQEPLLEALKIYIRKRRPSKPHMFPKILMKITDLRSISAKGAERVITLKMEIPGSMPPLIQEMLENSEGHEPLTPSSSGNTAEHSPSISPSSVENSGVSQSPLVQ
# Assay: Transactivation of Gal4-fused RARbeta (unknown origin) expressed in African green monkey COS1 cells at 100 nM by luciferase reporter gene assay relative to DMSO-treated control
# Assay type: cell-based
# Conditions: COS-1
row,Compound,fold change (FC)
1,O=C(Nc1ccc(C(=O)O)c(Cl)c1)c1cc2c3c(c1)CCCC3CCC2,6
2,COc1cc(NC(=O)c2cc3c4c(c2)CCCC4(C)CCC3)ccc1C(=O)O,3
3,COc1cc(NC(=O)c2cc3c4c(c2)CCCC4CCC3)ccc1C(=O)O,2
4,CC12CCCc3cc(C(=O)Nc4ccc(C(=O)O)c(Cl)c4)cc(c31)CCC2,8
5,CC12CCCc3cc(C(=O)Nc4ccc(C(=O)O)cn4)cc(c31)CCC2,40
6,O=C(O)c1ccc(NC(=O)c2cc3c4c(c2)CCCCC4CCCC3)nc1,45
7,O=C(O)c1ccc(C(=O)Nc2cc3c4c(c2)CCCCC4CCCC3)nc1,17
8,O=C(O)c1ccc(C(=O)Nc2cc3cc(c2)CCCCCCCCCC3)cc1,8
9,CC12CCCc3cc(NC(=O)c4ccc(C(=O)O)cc4)cc(c31)CCC2,12

# Other lines, results leading:
row,fold change (FC),Compound
1,16,O=C(O)c1ccc(C(=O)Nc2cc3c4c(c2)CCCC4CCC3)nc1
2,18,O=C(O)c1ccc(NC(=O)c2cc3c4c(c2)CCCC4CCC3)cc1

# System: HL-60
# Assay: Induction of human HL60 cell differentiation into myeloid cells at 100 nM after 4 days by NBT reduction assay relative to control
# Assay type: functional
# Conditions: not given
row,Compound,Activity [%]
1,O=C(Nc1ccc(C(=O)O)c(Cl)c1)c1cc2c3c(c1)CCCC3CCC2,37
2,O=C(O)c1ccc(C(=O)Nc2cc3c4c(c2)CCCC4CCC3)nc1,5
3,COc1cc(NC(=O)c2cc3c4c(c2)CCCC4(C)CCC3)ccc1C(=O)O,17
4,COc1cc(NC(=O)c2cc3c4c(c2)CCCC4CCC3)ccc1C(=O)O,10
5,CC1(C)CCC(C)(C)c2cc(NC(=O)c3ccc(C(=O)O)cc3)ccc21 [TAMIBAROTENE],68
6,CC12CCCc3cc(C(=O)Nc4ccc(C(=O)O)c(Cl)c4)cc(c31)CCC2,21
7,CC12CCCc3cc(C(=O)Nc4ccc(C(=O)O)cn4)cc(c31)CCC2,61
8,O=C(O)c1ccc(NC(=O)c2cc3c4c(c2)CCCC4CCC3)cc1,38
9,O=C(O)c1ccc(C(=O)Nc2cc3cc(c2)CCCCCCCCCC3)cc1,37
